Laboratory results reported in US7348323B2, “Pyrrolo [2,3-c] pyridine derivatives” (Hoffmann-La Roche Inc., priority 2005, dated 2008).

target: T1, histamine 3 receptor (H3R) (Homo sapiens, UniProt Q9Y5N1); test: Competition binding assay with 3H-(R)α-methylhistamine on membranes of the human HR3-CHO cell line; conditions: membrane of the human HR3-CHO cell line; 3H(R)α-Methylhistamine 1 nM; Ki calculated from IC50 by Cheng-Prusoff equation
T1 construct: expressed in transfected cells; host or cells: CHO cells (HR3-CHO)
Protocol: Binding Assay with ^3H-(R)α-methylhistamine
Saturation binding experiments were performed using HR3-CHO membranes prepared as described in Takahashi, K, Tokita, S., Kotani, H. (2003) J. Pharmacol. Exp. Therapeutics 307, 213-218.
An appropriate amount of membrane (60 to 80 μg protein/well) was incubated with increasing concentrations of ^3H(R)α-Methylhistamine di-hydrochloride (0.10 to 10 nM). Non specific binding was determined using a 200 fold excess of cold (R)α-Methylhistamine dihydrobromide (500 nM final concentration). The incubation was carried out at room temperature (in deep-well plates shaking for three hours). The final volume in each well was 250 μl. The incubation was followed by rapid filtration on GF/B filters (pre-soaked with 100 μl of 0.5% PEI in Tris 50 mM shaking at 200 rpm for two hours). The filtration was made using a cell-harvester and the filter plates were then washed five times with ice cold washing buffer containing 0.5 M NaCl. After harvesting, the plates were dried at 55° C. for 60 min, then we added scintillation fluid (Microscint 40, 40 microl in each well) and the amount of radioactivity on the filter was determined in Packard top-counter after shaking the plates for two hours at 200 rpm at room temperature.
Binding Buffer: 50 mM Tris-HCl pH 7.4 and 5 mM MgCl2x6H2O pH 7.4. Washing Buffer: 50 mM Tris-HCl pH 7.4 and 5 mM MgCl2x6H2O and 0.5 M NaCl pH 7.4.
Indirect measurement of affinity of H3R inverse agonists: twelve increasing concentrations (ranging from 10 μM to 0.3 nM) of the selected compounds were always tested in competition binding experiments using membrane of the human HR3-CHO cell line. An appropriate amount of protein, e.g. approximately 500 cpm binding of RAMH at Kd, were incubated for 1 hour at room temperature in 250 μl final volume in 96-well plates in presence of ^3H(R)α-Methylhistamine (1 nM final concentration=Kd). […]
All compounds were tested at a single concentration in duplicates. […] Ki's were calculated from IC50 based on Cheng-Prusoff equation (Cheng, Y, Prusoff, W H (1973) Biochem Pharmacol 22, 3099-3108).

T1 sequence (Q9Y5N1 whole entry): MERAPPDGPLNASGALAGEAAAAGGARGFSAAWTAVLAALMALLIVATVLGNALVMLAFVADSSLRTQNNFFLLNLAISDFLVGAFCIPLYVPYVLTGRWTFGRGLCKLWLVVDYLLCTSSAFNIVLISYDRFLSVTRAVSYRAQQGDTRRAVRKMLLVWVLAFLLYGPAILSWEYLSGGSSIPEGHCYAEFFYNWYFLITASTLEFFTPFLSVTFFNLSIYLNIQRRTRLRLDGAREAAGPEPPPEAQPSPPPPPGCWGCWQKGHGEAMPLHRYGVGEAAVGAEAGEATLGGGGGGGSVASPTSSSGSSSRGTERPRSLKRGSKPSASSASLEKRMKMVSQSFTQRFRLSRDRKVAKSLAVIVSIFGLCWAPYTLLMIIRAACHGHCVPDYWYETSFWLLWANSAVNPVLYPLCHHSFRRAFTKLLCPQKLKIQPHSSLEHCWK

Row | Ki | SMILES
1 | 0.033 µM | O=C(c1cc2cc(N3CCN(C4CCCC4)CC3)ncc2[nH]1)N1CCCC1 [Example 1, [5-(4-Cyclopentyl-piperazin-1-yl)-1H-pyrrolo[2,3-c]pyridin-2-yl]-pyrrolidin-1-yl-methanone]
2 | 0.0274 µM | CCCNC(=O)c1cc2cc(N3CCN(C4CCCC4)CC3)ncc2[nH]1 [Example 13, 5-(4-cyclopentyl-piperazin-1-yl)-1H-pyrrolo[2,3-c]pyridine-2-carboxylic acid propylamide]
3 | 0.0631 µM | CC(C)N1CCN(c2cc3cc(C(=O)N4CCC(F)(F)CC4)[nH]c3cn2)CC1 [Example 27, (4,4-difluoro-piperidin-1-yl)-[5-(4-isopropyl-piperazin-1-yl)-1H-pyrrolo[2,3-c]pyridin-2-yl]-methanone]
